Laboratory results published in PMC9234961 (Journal of Medicinal Chemistry, 2022).
Converted amounts (≈) assume the structure as drawn. “And” between values parts separate entries of the source, which are not always exact repeats. Identical values can stand only once. Like-named read-outs stand apart in the source and are kept apart here.

How the values were obtained:
[1] = target: endogenous BCL6 in OCI-Ly1 cells (Homo sapiens, UniProt P41182); test: cell-based; conditions: for degradation of BCL6 (in words): OCI-Ly1 MSD assay; for MSD degrader assay [OCI-Ly1] Dmax: mean maximal degradation of BCL6; for MSD degrader assay [OCI-LY1] pDC50 mean: mean of replicates
[2] = Microsomal clearance assay (MLM); type: in vitro ADME; conditions: female, CD1, pH 7.4; mouse liver microsomes, 1 μM compound
Method: 6. Supplementary experimental: in vitro DMPK assays
6.1 Microsomal clearance assay
Microsomal clearance was determined in female CD1 mice, female Sprague–Dawley rats, and mixed gender human liver microsomes obtained from BioIVT (Peterborough, U.K.) following incubation of 1 μM compound at 37 °C in 0.5 mg/mL microsomal protein, 3 mmol/L MgCl2, 1 mmol/L NADPH, 2.5 mmol/L and 10 mmol/L phosphate buffer (pH 7.4) (all purchased from Sigma-Aldrich, Gillingham, U.K). Reactions were started by addition of the cofactors following 10 min preincubation of microsomes with test compound and were terminated at −1, 0, 5, 10, 15, and 30 min with three volumes of ice-cold methanol containing internal standard. Samples were centrifuged at 2800g for 30 min at 4 °C and the supernatants analyzed.
Control incubations were prepared as above with omission of cofactors. Compound measurements were […]
separation with a 3 min gradient of 0.1% formic acid in methanol on a Kinetex C18, 50 × 2.1 mm 2.6 μm UPLC column (Phenomenex, Macclesfield, UK). […]

[3] = logD7.4 assay (Chrom log D method); type: physicochemical; conditions: pH 7.4, read-out: Measured logD7.4
Method: Calibration, validation and in-house compounds were prepared at 1mM in 10% DMSO / 90% Trizma solution (100mM Trizma in 75/25 methanol/water). 3 µL standard injections (with needle wash) of all calibration, validation and in-house samples were made onto a Phenomenex Luna C8 column (3µm, 100 x 4.6 mm, 100A, Phenomenex, Torrence, USA). Chromatographic separation at 30°C was carried out using […]
2 mL/min. The gradient was held at 0:100 water:organic for 0.8 minutes, then returned to the starting conditions of 95:5 water:organic for 0.2 minutes. The column was re-equilibrated for 5 minutes at the […]

NMR solubility assay = type: physicochemical; conditions: kinetic solubility by NMR in HEPES buffer at pH 8, 4% DMSO; read-out: Aq. Sol.
Method: 4. Supplementary experimental: physicochemical assays
0.5 mM TCEP, 10% D2O) was pipetted into the same well and mixed by up-down pipetting 3 times to create […]
It was then separated by centrifugation (1000 rpm
The plate was then sealed and incubated at room temperature for 20 hours, […]
165 µL of the supernatant was transferred to a 3 mm NMR tube (Bruker, Part No. Z112272) using liquid handler SamplePro Tube SJ S (Bruker). The concentration of the solubilized compound in solubility sample is measured by quantitative 1H-NMR using a single external standard (200 µM caffeine (Sigma, C1778) in PBS (pH 7.4) with 1% DMSO-d6).
The detail of the NMR method is as following: NMR data was collected on a Bruker Avance Neo 600 spectrometer equipped with a 5 mm TCI-CryoProbe. The 1H spectrum was referenced to the internal deuterated solvent. The operating frequency for 1H was 600 MHz. All NMR data were acquired at the […]
1H-NMR spectrum was acquired using a Bruker standard 1D lc1pngppsf2 pulse sequence with 32 scans.
The sweep width was 6.2 ppm with O1P set to 8.8 ppm, and the FID contained 16k time-domain data points. Relaxation delay was set to 20 sec. Water signal was suppressed. […]

human BCL6 BTB domain [4] = target: T1, human BCL6 BTB domain (Homo sapiens, UniProt P41182); conditions: for BCL6 TR-FRET pIC50 mean: mean of replicates
Method: (§1) Assays were performed in a 384-well black Proxiplate (Perkin Elmer) containing 1 nM Trx-6xHis-BCL6 (in
(§2) anti-6xHis-Terbium cryptate (CisBio Bioassays, France), in assay buffer (25 mM Hepes pH8, 100 mM NaCl,
(§3) 0.05% Tween20, 0.5 mM TCEP, 0.05% bovine serum albumin). Test compounds in DMSO or DMSO alone
(§4) were added to the wells using an ECHO550 acoustic dispenser (Labcyte Inc) to give the appropriate test
(§5) concentration in 0.7% v/v DMSO final. After 2 hours incubation at room temperature the plate was read
(§6) The % inhibition at each concentration was calculated by normalising FRET ratio to the
(§7) appropriate high (DMSO with all reagents) and low (DMSO without BCL6) controls. IC50 values were
(§8) determined using GraphPad Prism 6.0 or Dotmatics (Bishops Stortford, UK) software by fitting the
(§9) normalised data to a sigmoidal four-parameter logistic fit equation.

human BCL6 BTB domain [5] = target: T1, human BCL6 BTB domain; test: biochemical
Method: as §1, §2, §3, §4, §5, §6, §7, §8, §9

[6] = OCI-Ly1, read-out: MSD degrader assay [OCI-LY1] Dmax individual replicates, single replicate values
[7] = OCI-Ly1, read-out: MSD degrader assay [OCI-Ly1] Dmax, mean maximal degradation of BCL6, OCI-Ly1 cells, 2 h
[8] = read-out: MSD degrader assay [OCI-LY1] DC50 individual replicates, single replicate values
[9] = read-out: MSD degrader assay [OCI-Ly1] DC50, geometric mean, OCI-Ly1 cells, 2 h incubation
[10] = reversed-phase HPLC on Phenomenex Luna C8 column
[11] = read-out: BCL6 TR-FRET IC50, geometric mean, BCOR-AF633 peptide, 2 h incubation
[12] = BCL6 TR-FRET IC50 individual replicates, single replicate values
[13] = read-out: BCL6 TR-FRET IC50 individual replicates, single replicate values

In the case of C[C@H]1CCCN(c2ncc(Cl)c(Nc3ccc4c(c3)c3c(c(=O)n4C)OCC(F)(F)[C@H](C4CC4)N3)n2)C1 [15a, (S)-10-((5-chloro-2-((S)-3-methylpiperidin-1-yl)pyrimidin-4-yl)amino)-2-cyclopropyl-3,3-difluoro-7-methyl-1,2,3,4-tetrahydro-[1,4]oxazepino[2,3-c]quinolin-6(7H)-one], the Dmax [1, 6] is reported as 88.4%, the Dmax [1, 7] is reported as 85.5% and the “degradation of BCL6 (in words)” value [1] is reported as “degraders of BCL6”. The “MSD degrader assay [OCI-Ly1] Dmax” value ([1]; OCI-Ly1 cells, 2 h) was 86%, the “MSD degrader assay [OCI-LY1] pDC50 mean” value [1] was 8.1987 and the DC50 [1, 8] was 0.016 µM and 0.0017 µM and 0.0093 µM. For the same compound, the DC50 [1, 9] was 0.0063 µM, the “MSD degrader assay [OCI-LY1] Dmax individual replicates” value ([1]; single replicate values) was 83.3% and 85.0% and the microsomal CLint at 0.5 h, 1 µM [2] was 568 µL/min/mg. For the same compound, the chromatographic logD [3, 10] was 4.9, the solubility kinetic at 20 h (NMR solubility assay) was 0 µM and the “BCL6 TR-FRET pIC50 mean” value (human BCL6 BTB domain [4]) was 7.4377. For the same compound, the IC50 (human BCL6 BTB domain [4]; [11]) was 0.0365 µM and the IC50 (human BCL6 BTB domain [5]; [12]) was 0.048 µM and 0.0295 µM and 0.0344 µM.

For C[C@@H]1C[C@H](N(C)C)CN(c2ncc(Cl)c(Nc3ccc4c(c3)c3c(c(=O)n4C)OCC(F)(F)[C@H](C4CC4)N3)n2)C1 [11b, (S)-10-((5-Chloro-2-((3S,5R)-3-(dimethylamino)-5-methylpiperidin-1-yl)pyrimidin-4-yl)amino)-2-cyclopropyl-3,3-difluoro-7-methyl-1,2,3,4-tetrahydro-[1,4]oxazepino[2,3-c]quinolin-6(7H)-one], the Dmax [1, 6] was less than 30%, the Dmax [1, 7] was less than 30% and the “degradation of BCL6 (in words)” value [1] was “nondegrading isomer”. For the same compound, the “MSD degrader assay [OCI-Ly1] Dmax” value ([1]; OCI-Ly1 cells, 2 h) was greater than 30%, the DC50 [1, 8] was greater than 2 µM and the DC50 [1, 9] was greater than 2 µM. It also gave a microsomal CLint at 0.5 h, 1 µM [2] of 681 µL/min/mg, a chromatographic logD [3, 10] of 3.3 and a solubility kinetic at 20 h (NMR solubility assay) of 58 µM (≈ 33.3 µg/mL). For the same compound, the “BCL6 TR-FRET pIC50 mean” value (human BCL6 BTB domain [4]) was 8.4399, the IC50 (human BCL6 BTB domain [4]; [11]) was 0.0036 µM and the IC50 (human BCL6 BTB domain [5]; [12]) was 0.0033 µM and 0.003 µM and 0.0048 µM.

With Cn1c(=O)c2c(c3cc(Nc4nc(N5CCC[C@@H](O)C5)ncc4Cl)ccc31)N[C@@H](C1CC1)C(F)(F)CO2 [14a, (S)-10-((5-chloro-2-((R)-3-hydroxypiperidin-1-yl)pyrimidin-4-yl)amino)-2-cyclopropyl-3,3-difluoro-7-methyl-1,2,3,4-tetrahydro-[1,4]oxazepino[2,3-c]quinolin-6(7H)-one] the Dmax [1, 6] was 34.9%, the Dmax [1, 7] was 34.9% and the “MSD degrader assay [OCI-Ly1] Dmax” value ([1]; OCI-Ly1 cells, 2 h) was 35%. It also gave a DC50 [1, 8] greater than 2 µM, a DC50 [1, 9] greater than 2 µM and a microsomal CLint at 0.5 h, 1 µM [2] of 88 µL/min/mg. For the same compound, the chromatographic logD [3] was 2.7, the solubility kinetic at 20 h (NMR solubility assay) was 25 µM (≈ 13.3 µg/mL) and the IC50 (human BCL6 BTB domain [4]; [11]) was 0.003 µM. For the same compound, the IC50 (human BCL6 BTB domain [4]; [13]) was 0.0031 µM, the IC50 (human BCL6 BTB domain [5]; [12]) was 0.0017 µM and 0.0024 µM and the IC50 (human BCL6 BTB domain [5]; BCL6 TR-FRET pIC50 mean, mean of replicates) was 0.00246 µM.

In the case of Cn1c(=O)n(CCC(C)(C)O)c2cc(Nc3nc(N4CCC(F)(F)C(O)C4)ncc3Cl)ccc21 (stereo not drawn) [compound 3, 5-((5-Chloro-2-(4,4-difluoro-3-hydroxypiperidin-1-yl)pyrimidin-4-yl)amino)-3-(3-hydroxy-3-methylbutyl)-1-methyl-1,3-dihydro-2H-benzo[d]imidazol-2-one], the Dmax [1, 6] is reported as 81%, the Dmax [1, 7] is reported as 77.5% and the “MSD degrader assay [OCI-Ly1] Dmax” value ([1]; OCI-Ly1 cells, 2 h) is reported as 78%. The “MSD degrader assay [OCI-LY1] pDC50 mean” value [1] was 6.5593, the DC50 [1, 8] was 0.246 µM and 0.31 µM and the DC50 [1, 9] was 0.276 µM. For the same compound, the “MSD degrader assay [OCI-LY1] Dmax individual replicates” value ([1]; single replicate values) was 74.1%, the microsomal CLint at 0.5 h, 1 µM [2] was 35 µL/min/mg and the chromatographic logD [3, 10] was 2.3. For the same compound, the solubility kinetic at 20 h (NMR solubility assay) was 11 µM (≈ 5.47 µg/mL), the “BCL6 TR-FRET pIC50 mean” value (human BCL6 BTB domain [4]) was 6.6241 and the IC50 (human BCL6 BTB domain [4]; [11]) was 0.238 µM. The IC50 (human BCL6 BTB domain [4]; [13]) was 0.227 µM and 0.247 µM and 0.239 µM.
